Molecules are shown by their SMILES.

One may read the IC50 as the midpoint of a concentration-inhibition curve. Read a high IC50 as a need for much substance.

The assay concerns the target human PRMT3 (Homo sapiens, UniProt O60678). Briefly: PRMT3 Biochemical Assay (3H-SAM Flashplate, peptide substrate). The following applies: single experiment or average of multiple experiments.

Sequence of human PRMT3 (O60678 with tags, fused parts or gaps): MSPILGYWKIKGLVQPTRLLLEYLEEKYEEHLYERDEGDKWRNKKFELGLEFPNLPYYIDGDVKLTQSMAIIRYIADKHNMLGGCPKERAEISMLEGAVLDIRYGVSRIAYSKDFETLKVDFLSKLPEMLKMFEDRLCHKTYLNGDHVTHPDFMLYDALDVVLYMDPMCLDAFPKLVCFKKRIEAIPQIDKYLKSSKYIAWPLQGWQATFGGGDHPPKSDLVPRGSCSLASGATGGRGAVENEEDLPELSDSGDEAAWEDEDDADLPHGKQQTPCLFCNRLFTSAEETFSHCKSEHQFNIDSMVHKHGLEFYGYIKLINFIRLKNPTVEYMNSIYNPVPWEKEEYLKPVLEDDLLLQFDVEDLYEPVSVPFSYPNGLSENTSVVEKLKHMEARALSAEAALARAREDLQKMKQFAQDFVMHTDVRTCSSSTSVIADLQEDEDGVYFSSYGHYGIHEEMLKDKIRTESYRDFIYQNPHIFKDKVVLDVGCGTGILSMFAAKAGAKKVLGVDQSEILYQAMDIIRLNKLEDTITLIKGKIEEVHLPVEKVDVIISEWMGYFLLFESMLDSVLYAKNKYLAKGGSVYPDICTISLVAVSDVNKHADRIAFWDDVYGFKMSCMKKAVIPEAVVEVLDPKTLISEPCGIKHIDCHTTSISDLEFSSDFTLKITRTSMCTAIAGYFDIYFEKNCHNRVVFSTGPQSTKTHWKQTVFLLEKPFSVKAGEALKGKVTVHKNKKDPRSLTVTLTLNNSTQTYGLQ

`CNCCN(C)Cc1c[nH]nc1-c1ccc(F)cc1` [Compound 2, N^1-((3-(4-fluorophenyl)-1H-pyrazol-4-yl)methyl)-N^1,N^2-dimethylethane-1,2-diamine] came in with a concentration for half-maximal inhibition (IC50) of 4.48 µM. With `CCCc1ccc(-c2n[nH]cc2CN(C)CCNC)cc1` [Compound 20] the figure was 3.54 µM; with `CNCCN(C)Cc1c[nH]nc1-c1cccc([N+](=O)[O-])c1` [Compound 21], 2.3 µM; with `CNCCN(C)Cc1c[nH]nc1-c1ccc(CO)cc1` [Compound 28], 0.202 µM.

Molecule `CNCCN(C)Cc1c[nH]nc1-c1ccc(N)cc1` [Compound 33] had a half-inhibitory concentration (IC50) of 1.89 µM. With `CNCCN(C)Cc1c[nH]nc1-c1ccc(Oc2ccccc2)cc1` [Compound 37] the figure was 0.25 µM; with `CNCCN(C)Cc1c[nH]nc1-c1ccc(C(=O)c2ccccc2)cc1` [Compound 45], 5.53 µM; with `CNCCN(C)Cc1c[nH]nc1-c1ccc(F)cc1F` [Compound 49], 4.43 µM.

On to `CNCCN(C)Cc1c[nH]nc1-c1ccc(F)c(F)c1` [Compound 51], for which the IC50 worked out at 5.01 µM. In the case of `CNCCN(C)Cc1c[nH]nc1-c1ccc(OC)c(F)c1` [Compound 52], the half-inhibitory concentration (IC50) amounted to 5.25 µM.

The molecule `CNCCN(C)Cc1c[nH]nc1-c1cccc2ccccc12` [Compound 57] returned a 50% inhibitory concentration (IC50) of 3.35 µM. `CNCCN(C)Cc1c[nH]nc1-c1ccc2ccccc2c1` [Compound 58] yielded a concentration for half-maximal inhibition (IC50) of 3.16 µM. For `CCN(CCN)Cc1c[nH]nc1-c1ccc(F)cc1` [Compound 62], the IC50 was 4.13 µM.

For `CN(CCN)Cc1c[nH]nc1-c1ccc(C#N)cc1` [Compound 68], the IC50 amounted to 4.36 µM. The IC50 values of the last two molecules are within 1.5-fold of each other.

The values are drawn from patent US9776972B2, “Pyrazole derivatives as arginine methyltransferase inhibitors and uses thereof” (priority 2013, dated 2017).
